Patent EP1161957A1, “Complex for transferring an anionic substance of interest into a cell” (TRANSGENE S.A., priority 2000, dated 2001)
Ends that are not written are not given here.

Test system: B6SJL mice
Conditions: intravenous injection of pTG11236/peptide complexes, dead mice per group of five
Procedure: Indicated amounts of the luciferase expression plasmid pTG11236 were mixed with ppTG1 and /or pcTG90/DOPE. […] Muscles, tumors or organs were recovered at the indicated points of time, macerated and tested for luciferase activity with the luciferase assay kit from Promega.
After 20 min incubation at room temperature, the complexes were intravenously injected into B6SJL mice. Mice were sacrificed at day 1. The lungs were recovered, total protein was extracted and luciferase activity was analysed.
The potential of gene transfer with mono-component peptide vectors was investigated in vivo. […] Five mice per group were intravenously injected, the animals were sacrificed at day 1 after injection. Lungs were tested for luciferase activity.

GLFRALLRLLRSLWRLLLRA [ppTG20] was tested, and the toxicity was “less toxic than ppTG1”.
